Test results published in PMC2996585 (Journal of medicinal chemistry, 2010).
Entries after “also recorded” stand apart in the source; their conditions may differ. Like-named read-outs stand apart in the source and are kept apart here. Bridges are numbered along the chain shown (N, C = ends). Where no end group is shown, it is not given here.

Target: T1, ENaC (Homo sapiens, UniProt P37088)
T1 sequence (P37088 1-669): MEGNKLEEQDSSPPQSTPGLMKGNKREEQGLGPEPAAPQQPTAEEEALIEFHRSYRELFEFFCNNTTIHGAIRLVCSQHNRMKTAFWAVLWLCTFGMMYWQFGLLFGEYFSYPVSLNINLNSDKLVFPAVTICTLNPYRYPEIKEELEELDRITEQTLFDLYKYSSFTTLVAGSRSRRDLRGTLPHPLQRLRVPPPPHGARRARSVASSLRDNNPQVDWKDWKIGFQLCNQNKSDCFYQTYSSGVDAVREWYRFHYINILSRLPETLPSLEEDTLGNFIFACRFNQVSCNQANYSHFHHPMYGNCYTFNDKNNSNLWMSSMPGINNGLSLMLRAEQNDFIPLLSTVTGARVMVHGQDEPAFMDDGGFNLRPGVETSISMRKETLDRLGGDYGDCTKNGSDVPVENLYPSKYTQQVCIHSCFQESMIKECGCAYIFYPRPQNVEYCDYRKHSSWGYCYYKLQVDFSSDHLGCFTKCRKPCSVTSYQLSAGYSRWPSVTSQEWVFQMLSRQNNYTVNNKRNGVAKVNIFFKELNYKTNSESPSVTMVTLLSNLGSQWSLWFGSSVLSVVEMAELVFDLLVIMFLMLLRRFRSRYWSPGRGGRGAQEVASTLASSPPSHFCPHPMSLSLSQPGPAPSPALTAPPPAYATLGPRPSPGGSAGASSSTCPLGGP
T1 sequence (P51168 1-640 partner): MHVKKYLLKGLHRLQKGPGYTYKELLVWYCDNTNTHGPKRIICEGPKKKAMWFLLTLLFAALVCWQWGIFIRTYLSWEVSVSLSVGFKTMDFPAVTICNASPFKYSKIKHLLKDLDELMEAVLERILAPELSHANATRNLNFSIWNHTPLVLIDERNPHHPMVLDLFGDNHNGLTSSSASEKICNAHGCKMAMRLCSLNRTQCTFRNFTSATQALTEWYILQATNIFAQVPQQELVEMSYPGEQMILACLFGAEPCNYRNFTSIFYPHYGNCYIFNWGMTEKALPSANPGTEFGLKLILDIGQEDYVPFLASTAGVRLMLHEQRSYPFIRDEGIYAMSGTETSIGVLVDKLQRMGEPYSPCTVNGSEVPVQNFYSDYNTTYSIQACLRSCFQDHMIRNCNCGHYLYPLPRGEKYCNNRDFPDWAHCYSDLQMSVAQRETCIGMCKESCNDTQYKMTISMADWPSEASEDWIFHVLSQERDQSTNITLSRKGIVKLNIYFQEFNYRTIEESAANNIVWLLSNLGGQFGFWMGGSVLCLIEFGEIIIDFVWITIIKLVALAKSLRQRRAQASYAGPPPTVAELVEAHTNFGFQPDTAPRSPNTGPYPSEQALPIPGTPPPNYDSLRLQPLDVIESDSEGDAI
T1 sequence (P51170 1-649 partner): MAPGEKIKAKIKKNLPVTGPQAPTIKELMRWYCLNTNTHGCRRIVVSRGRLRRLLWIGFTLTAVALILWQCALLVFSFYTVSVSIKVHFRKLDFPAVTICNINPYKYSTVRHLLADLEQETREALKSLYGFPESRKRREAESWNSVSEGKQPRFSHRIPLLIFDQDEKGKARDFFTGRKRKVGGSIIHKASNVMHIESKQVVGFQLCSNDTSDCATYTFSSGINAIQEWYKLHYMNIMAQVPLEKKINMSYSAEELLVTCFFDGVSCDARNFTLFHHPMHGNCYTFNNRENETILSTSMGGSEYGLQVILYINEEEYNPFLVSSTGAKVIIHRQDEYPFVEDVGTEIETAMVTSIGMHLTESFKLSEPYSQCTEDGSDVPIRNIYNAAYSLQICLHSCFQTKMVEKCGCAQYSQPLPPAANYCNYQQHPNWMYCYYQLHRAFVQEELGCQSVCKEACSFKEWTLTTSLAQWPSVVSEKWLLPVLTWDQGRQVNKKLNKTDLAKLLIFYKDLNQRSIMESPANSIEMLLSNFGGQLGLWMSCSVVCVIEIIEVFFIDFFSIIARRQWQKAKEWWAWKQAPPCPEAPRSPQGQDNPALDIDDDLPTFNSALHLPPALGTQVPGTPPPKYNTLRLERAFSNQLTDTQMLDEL
Type: cell-based
Details: A549 cells, whole-cell patch clamp; for ENaC-activating effect / effect on sodium current (in words): no concentration stated at the place

Substance	Effect on ENaC (concentrations up to 240 nM)	Effect on ENaC (concentrations up to 480 nM)	ENaC-activating effect / effect on sodium current (in words)	ENaC-activating effect / effect on sodium current (in words) (listed as 22)
Cyclo(6-aminohexanoic acid-GQRETPEGAEAKPWYG) (head to tail) [compound 11]	no effect	no effect	inactive	did not affect ENaC
Cyclo(5-aminopentanoic acid-GQRETPEGAEAKPWYG) (head to tail) [compound 6]	no effect	no effect	did not affect ENaC; also recorded: inactive	
Cyclo(4-aminobutanoic acid-GQRETPEGAEAKPWYG) (head to tail) [compound 7]	no effect	no effect	did not affect ENaC; also recorded: inactive	
CQRETPEGAEAKGGC (disulfide 1-15) [compound 2]		no effect	ineffective; also recorded: inactive	
Cyclo(7-aminoheptanoic acid-GQRETPEGAEAKPWY) (head to tail) [compound 10]	no effect	no effect		
CGQREAPAGAAAKPWYC (disulfide 1-17) [compound 12, reference compound]		no effect	ineffective; also recorded: no effect	
